“And” between values parts separate entries of the source, which are not always exact repeats. Identical values can stand only once.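 Step 1: Grow cells in 96-well plates. Step 2: Expose to compound for 48 hours at 5 concentrations. Step 3: Interpolate endpoints linearly; if unreached, use highest concentration. GI50: concentration for 50% inhibition of growth. Definition used: TGI = concentration required for complete inhibition of growth.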
Experiments:
Assay in all cases: NCI anticancer screen, dose series, 48 h
[1] = tested on: A498 renal
[2] = tested on: ACHN renal
[3] = tested on: BT-549 breast
[4] = tested on: HL-60(TB) leukemia
[5] = tested on: NCI-H226 lung
[6] = tested on: NCI-H522 lung
[7] = tested on: RXF 393 renal
[8] = tested on: SK-MEL-5 melanoma
[9] = tested on: SN12C renal
[10] = tested on: UACC-257 melanoma

SMILES	GI50 [1]	TGI [1]	GI50 [2]	TGI [2]	GI50 [3]	TGI [3]	GI50 [4]	TGI [4]	GI50 [5]	TGI [5]	GI50 [6]	TGI [6]	GI50 [7]	TGI [7]	GI50 [8]	TGI [8]	GI50 [9]	TGI [9]	GI50 [10]	TGI [10]
CC(=O)OC[C@]1(C)C=C2C(=O)[C@](C)(O)C3(CC3)C(C)=C2[C@H]1O	0.148 µM	0.366 µM	0.0221 µM	0.0501 µM	0.148 µM	0.556 µM	0.0861 µM	0.852 µM	0.217 µM	0.634 µM	0.0798 µM	0.39 µM	0.0612 µM	0.199 µM	0.137 µM	0.3 µM	0.251 µM	6.21 µM	0.28 µM	1.12 µM
OCc1c[nH]c2ccccc12	31.3 µM	> 100 µM	24.4 µM	86.4 µM	28.9 µM	73.3 µM	35.1 µM	77.3 µM	17.4 µM	48.1 µM	16.7 µM	37.1 µM	18.2 µM	43.8 µM	14.4 µM	30.1 µM	18.9 µM	39.7 µM	22.9 µM	74 µM
CC[CH2][Sn]([CH2]CC)([O]C(=O)c1cccnc1SC)[O][Sn]([CH2]CC)([CH2]CC)[O]C(=O)c1cccnc1SC	0.246 µM	0.629 µM	0.427 µM	0.97 µM	1.41 µM	2.71 µM	0.26 µM	4.24 µM	0.614 µM	1.79 µM	< 0.0196 µM	0.0784 µM	0.0992 µM	0.342 µM	0.898 µM	3.26 µM	0.453 µM	1.39 µM	0.594 µM	1.72 µM
N#Cc1ccc(O)c(C2=NCC(c3cccc(Oc4ccccc4)c3)O2)c1 (stereo unspecified)	2.06 µM	22.3 µM	0.615 µM	14.3 µM	1.96 µM	17.8 µM	0.852 µM	9.29 µM	1.7 µM	11.1 µM	1.17 µM	12.3 µM	1.53 µM	9.56 µM	0.549 µM	2.3 µM	1.21 µM	89.5 µM	2.28 µM	7.29 µM
COc1cc2c(c(O)c1Br)C(=O)c1c(O)cc(C[C@H](C)O)cc1[C@H]2[C@H]1c2cc(C[C@H](C)O)cc(O)c2C(=O)c2c1cc(OC)c(Br)c2O	4.35 µM and 22.5 µM	35.1 µM and 58.5 µM	2.38 µM and 10.5 µM	9.27 µM and 23.1 µM	10.9 µM and 7.55 µM	63.5 µM and 45.2 µM	3.28 µM and 17.4 µM	28 µM and 48.5 µM	6.33 µM and 10.6 µM	30.9 µM and 47.6 µM	8.02 µM and 25.7 µM	18.9 µM and 78.7 µM	2.59 µM and 2.72 µM	22 µM and 9.33 µM	7.44 µM and 15 µM	16 µM and 28.5 µM	2.25 µM and 3.64 µM	67.5 µM and > 100 µM	11.2 µM and 19.1 µM	39.8 µM and 67.7 µM
Cc1ccc(NC(=O)c2cccc(N(C)C)c2)cc1NC(=O)c1ccc(O)cc1	> 83.6 µM	> 100 µM	> 63.6 µM	> 100 µM	> 64 µM	> 100 µM	46.3 µM	> 100 µM	> 71.4 µM	> 100 µM	37.1 µM	> 88.2 µM	38 µM	> 66.1 µM	28.5 µM	> 65.8 µM	55 µM	> 100 µM	> 68.2 µM	> 100 µM
C[C@]12CC[C@H]3[C@@H](CC=C4C[C@@H](O)CC[C@@]43C)[C@@H]1CC[C@@H]2N(CCO)CCO		73 µM		> 100 µM		> 100 µM				> 100 µM		> 100 µM		> 100 µM		> 100 µM		> 100 µM		> 100 µM
N#Cc1ccc(NC(=O)Nc2ccc(Oc3ccc(NC(=O)Nc4ccc(C#N)cc4)cc3)cc2)cc1	15.9 µM	61.2 µM	18.8 µM	> 100 µM	3.48 µM	24.2 µM	1.17 µM	83.8 µM	23.1 µM	> 100 µM	10.9 µM	95.5 µM	15.3 µM	> 100 µM	20.2 µM	> 100 µM	25.3 µM	> 100 µM	29.1 µM	> 100 µM
CCCn1cnc2c(SCc3ccccc3Cl)nc(N)nc21	18.3 µM	> 100 µM	13.6 µM	67.4 µM	13.7 µM	44 µM	5.53 µM	28.6 µM	16.4 µM	> 100 µM	19.4 µM	71.1 µM	6.16 µM	24.8 µM	4.22 µM	19 µM	19.6 µM	95.2 µM	27.8 µM	93.8 µM
O/N=C/C1c2ccccc2-c2ccccc21		32.9 µM		32.2 µM		33.1 µM		93.7 µM		33.6 µM		33.4 µM		41.5 µM		25.4 µM		31.9 µM		34 µM
COc1ccc(-c2cnnc3c(-c4cccc(C(F)(F)F)c4)cnn23)cc1	3.52 µM	62.6 µM	3.52 µM	> 100 µM	3.4 µM	> 100 µM	> 100 µM	> 100 µM	2.64 µM	> 100 µM	3.66 µM	> 100 µM	0.0291 µM	3.07 µM	3.85 µM	> 100 µM	3.07 µM	> 100 µM	6.44 µM	> 100 µM
CC[C@]1(O)C[C@@H]2CN(CCc3c([nH]c4ccccc34)[C@@](C(=O)OC)(c3cc4c(cc3OC)N(C)[C@H]3[C@@](O)(C(=O)OC)[C@H](OC(C)=O)[C@]5(CC)C=CCN6CC[C@]43[C@@H]65)C2)C1	< 0.01 µM	< 0.01 µM	< 0.0324 µM	73.9 µM	< 0.01 µM	8.4 µM	< 0.01 µM	< 0.01 µM		17.7 µM	< 0.01 µM		< 0.01 µM	3.77 µM	< 0.01 µM	< 0.0385 µM	< 0.01 µM	35.7 µM	14.6 µM	37.8 µM
O=C(N/N=C/c1ccccc1O)c1ccccc1Nc1ccnc(C(F)(F)F)c1	18.1 µM	> 91.6 µM	0.342 µM	> 63.5 µM	0.527 µM	59 µM	0.293 µM	1.69 µM	1.08 µM	12.1 µM	5.74 µM	> 58.9 µM	1.05 µM	> 40.3 µM	0.432 µM	5.53 µM	0.974 µM	72.6 µM	0.396 µM	

Source: PubChem BioAssay (NCI)
